≈ marks a conversion by molar mass, not a printed value.
What was measured:
ovary OVCAR-3 = test: human cancer cell line growth inhibition, ovary OVCAR-3; assay type: cell-based; details: drug dose needed to reduce the percent growth to 50%
Text: (§1) The current cost to develop the necessary data required for lawful marketing of a new drug compound approaches ten million dollars per compound. Economics dictate that such a huge investment be made only when there is a reasonable likelihood that it can be recovered. Absent such a likelihood, there will be no investment and, without investment, the research requisite for the discovery of these potentially life saving compounds will cease. Current research in the control of cancer in the United States is coordinated by the National Cancer Institute (NCI). To determine whether a substance has anti-cancer properties, the NCI has established a systematic protocol. This protocol, which involves the testing of a substance against a standard cell line panel containing 60 human tumor cell lines, has been verified and is accepted in scientific circles. The protocol, and the established statistical means for analyzing the results obtained by the standardized testing are fully described in the literature. […]
(§2) Each drug is tested at five (5) doses: 100-10-1-0.1-0.01 μg/ml. Percent Growths are calculated for each dose. […]

lung NCI-H460 = test: human cancer cell line growth inhibition, lung NCI-H460; assay type: cell-based; details: drug dose needed to reduce the percent growth to 50%
Text: as §1, §2

[1] = tested on: human cancer cell lines (brain SF-295, renal A498, colon KM20L2, melanoma SK-MEL-5, lung NCI-H460, ovarian OVCAR-3); test: in vitro activity against minipanel of human cancer cell lines; assay type: cell-based; details: portion of minipanel including brain SF-295, renal A498, colon KM20L2 and melanoma SK-MEL-5
Text: as §1, §2

L1210 leukemia cell line = details: cited from earlier work
murine melanoma B16 = details: cited from earlier work

For `CCCCCCCCCCCCCCCCCCCCCC[C@@H](O)C(=O)N[C@@H](CO[C@H]1O[C@H](CO)[C@H](O)[C@H](O[C@@H]2O[C@@H]([C@@H](O)CO)[C@H](O)[C@H]2O[C@H]2O[C@@H]([C@@H](O)CO)[C@H](O)[C@H]2O)[C@H]1O)[C@H](O)[C@H](O)CCCCCCCCCCC(C)C` [agelagalastatin], the GI50 (ovary OVCAR-3) was 2.8 µg/mL (≈ 2.42 µM), the GI50 (lung NCI-H460) was 0.77 µg/mL (≈ 0.666 µM) and the in vitro activity [1] was “significant in vitro activity”.
In the case of `CN1C(=O)NC2C3NC(=O)c4ccc(Br)n4C3CC21O` (centres unmarked) [agelastatin A], the cytotoxic (L1210 leukemia cell line) is given as “cytotoxic”.
In the case of `CCCCCCCCCCCCCCCCCCCCCCCCCC(=O)N[C@@H](CO[C@H]1O[C@H](CO)[C@H](O)[C@H](O)[C@H]1O)[C@H](O)[C@H](O)CCCCCCCCCCCCCC` [structural modification (5)], the in vivo active (murine melanoma B16) is listed as “in vivo active”.
